Among the data in patent publication US5942514A, “Quinazoline derivatives” (Zeneca Limited, priority 1995, dated 1999) are IC50 values, retold here.

Test [1] has as its target T1, EGF receptor tyrosine kinase (Homo sapiens, UniProt P00533).
T1 construct: Receptor tyrosine kinase was obtained in partially purified form from A431 cells; endogenous in cells; host or cells: A431 cells (human vulval carcinoma), Triton X-100 solubilised membrane fraction
Nature of the test: In vitro assay: ability of a test compound to inhibit the enzyme EGF receptor tyrosine kinase (Test (a)). Format: biochemical. As to conditions: EGF receptor tyrosine kinase from A431 cells; approximate values. Here is the method: (a) An in vitro assay which determines the ability of a test compound to inhibit the enzyme EGF receptor tyrosine kinase.
A-431 cells were grown to confluence using Dulbecco's modified Eagle's medium (DMEM) containing 5% fetal calf serum (FCS). […] The homogenate was centrifuged at 400 g for 10 minutes at 0-4° C. The supernatant was centrifuged at 25,000 g for 30 minutes at 0-4° C. The pelleted material was suspended in 30 mM Hepes buffer at pH 7.4 containing 5% glycerol, 4 mM benzamidine and 1% Triton X-100, stirred for 1 hour at 0-4° C., and recentrifuged at 100,000 g for 1 hour at 0-4° C. The supernatant, containing solubilised receptor tyrosine kinase, was stored in liquid nitrogen.
There was thus obtained the test enzyme solution.
Equal volumes of this solution and a solution of epidermal growth factor (EGF; 20 μg/ml) were mixed.
[γ-^32 P]ATP (3000 Ci/mM, 250 μCi) was diluted to a volume of 2 ml by the addition of a solution of ATP (100 μM) in distilled water. An equal volume of a 4 mg/ml solution of the peptide […]in a mixture of 40 mM Hepes buffer at pH 7.4, 0.1% Triton X-100 and 10% glycerol was added.
The test compound/EGF mixture solution (5 μl) was added to the test enzyme solution (10 μl) and the mixture was incubated at 0-4° C. for 30 minutes. The ATP/peptide mixture (10 μl) was added and the mixture was incubated at 25° C. for 10 minutes. The phosphorylation reaction was terminated by the addition of 5% trichloroacetic acid (40 μl) and bovine serum albumin (BSA; 1 mg/ml, 5 μl). The mixture was allowed to stand at 4° C. for 30 minutes and then centrifuged. An aliquot (40 μl) of the supernatant was placed onto a strip of Whatman p 81 phosphocellulose paper. The strip was washed in 75 mM phosphoric acid (4×10 ml) and blotted dry. Radioactivity present in the filter paper was measured using a liquid scintillation counter (Sequence A). The reaction sequence was repeated in the absence of the EGF (Sequence B) and again in the absence of the test compound (Sequence C).
Receptor tyrosine kinase inhibition was calculated as follows: [formula]

The next test relates to KB cells. Nature of the test: In vitro assay: inhibition of the EGF-stimulated growth of the human naso-pharyngeal cancer cell line KB (Test (b)). Format: cell-based. The note with it: 72 h, EGF 10 ng/ml, 3 days, MTT, approximate values. Here is the method: (b) An in vitro assay which determines the ability of a test compound to inhibit the EGF-stimulated growth of the human naso-pharyngeal cancer cell line KB.
KB cells were seeded into wells at a density of 1×10^4 -1.5×10^4 cells per well and grown for 24 hours in DMEM supplemented with 5% FCS (charcoal-stripped). Cell growth was determined after incubation for 3 days by the extent of metabolism of MTT tetrazolium dye to furnish a bluish colour. Cell growth was then determined in the presence of EGF (10 ng/ml) or in the presence of EGF (10 ng/ml) and a test compound at a range of concentrations. An IC50 value could then be calculated.

Structures are written as SMILES.

T1 sequence (P00533 25-1210): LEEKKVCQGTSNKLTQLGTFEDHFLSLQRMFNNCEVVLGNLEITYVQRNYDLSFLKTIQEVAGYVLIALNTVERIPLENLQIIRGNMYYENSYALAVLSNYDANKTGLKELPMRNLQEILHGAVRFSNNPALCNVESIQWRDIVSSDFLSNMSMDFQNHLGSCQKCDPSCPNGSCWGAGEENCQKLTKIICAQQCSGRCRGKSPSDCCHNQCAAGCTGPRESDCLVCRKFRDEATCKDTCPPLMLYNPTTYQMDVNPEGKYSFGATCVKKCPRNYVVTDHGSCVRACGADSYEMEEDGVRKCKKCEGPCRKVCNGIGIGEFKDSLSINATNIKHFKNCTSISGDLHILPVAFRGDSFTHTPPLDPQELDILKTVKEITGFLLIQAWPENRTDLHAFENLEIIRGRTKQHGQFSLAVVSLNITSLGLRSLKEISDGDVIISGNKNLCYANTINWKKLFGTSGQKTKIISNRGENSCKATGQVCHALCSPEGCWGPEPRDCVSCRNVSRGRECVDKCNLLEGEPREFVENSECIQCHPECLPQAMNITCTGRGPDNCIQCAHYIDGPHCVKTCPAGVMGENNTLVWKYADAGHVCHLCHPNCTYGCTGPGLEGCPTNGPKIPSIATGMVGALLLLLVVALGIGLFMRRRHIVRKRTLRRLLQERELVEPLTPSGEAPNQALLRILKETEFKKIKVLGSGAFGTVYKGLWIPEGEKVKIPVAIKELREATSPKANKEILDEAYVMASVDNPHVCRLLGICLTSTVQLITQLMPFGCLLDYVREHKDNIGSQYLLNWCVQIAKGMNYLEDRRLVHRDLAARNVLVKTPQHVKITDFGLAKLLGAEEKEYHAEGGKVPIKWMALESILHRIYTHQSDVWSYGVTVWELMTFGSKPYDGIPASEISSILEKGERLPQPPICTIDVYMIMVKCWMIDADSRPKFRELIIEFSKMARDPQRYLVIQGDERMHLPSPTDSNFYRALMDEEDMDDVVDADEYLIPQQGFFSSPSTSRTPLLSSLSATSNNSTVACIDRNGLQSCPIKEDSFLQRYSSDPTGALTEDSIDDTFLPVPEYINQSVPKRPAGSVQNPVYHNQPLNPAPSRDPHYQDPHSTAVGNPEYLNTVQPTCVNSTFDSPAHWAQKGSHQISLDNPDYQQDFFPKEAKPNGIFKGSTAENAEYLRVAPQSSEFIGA

For the molecule `COCCCNc1ccc2ncnc(Nc3ccc(F)c(Cl)c3)c2c1` [Example 1, 4-(3'-chloro-4'-fluoroanilino)-6-(3-methoxypropylamino)quinazoline], the IC50 – broadly, the concentration that gives 50% inhibition – came out at 50 nM in test [1] and 100 nM with KB cells.
Taken in the same sequence, the figures for `COCCNc1ccc2ncnc(Nc3ccc(F)c(F)c3)c2c1` [Example 2, 4-(3',4'-difluoroanilino)-6-(2-methoxyethylamino)quinazoline] were 300 nM and 500 nM.
Consider `COCCNc1ccc2ncnc(Nc3ccc(F)c(Cl)c3)c2c1` [Example 3, 4-(3'-chloro-4'-fluoroanilino)-6-(2-methoxyethylamino)quinazoline], for which the IC50 in test [1] was 40 nM; in the test with KB cells, 300 nM.
Regarding `COCCNc1ccc2ncnc(Nc3ccc(F)cc3F)c2c1` [Example 4, 4-(2',4'-difluoroanilino)-6-(2-methoxyethylamino)quinazoline], the IC50 in test [1] is 300 nM; in the test with KB cells it was 1100 nM.
